# From patent US20080132458A1, “Hypoxia-Activated Anti-Cancer Agents” (Threshold Pharmaceuticals, Inc., priority 2004, published 2008)
# System: CD1 Mice
# Assay: toxicity in healthy mice: weight loss after a single intravenous dose, observed for seven days
# Type: in vivo, mouse
# Settings: single 20 mg/kg dose intravenously
# Method: CD1 Mice were injected intravenously with a single 20 mg/kg dose each of compounds 2a, 2b, daunorubicin, and vehicle and observed for seven days, before euthanization. […] Thus, compounds of the invention appear to be less toxic than Daunorubicin when administered to healthy mice.
row,Compound,weight loss as compared with the control group
1,COc1cccc2c1C(=O)c1c(O)c3c(c(O)c1C2=O)C[C@@](O)(C(C)=O)C[C@@H]3O[C@H]1CC2[C@H](OCOCN2C(=O)OCc2cnc([N+](=O)[O-])n2C)[C@H](C)O1 (stereo partly drawn) [Compound 2a],did not undergo significant weight loss
2,COc1cccc2c1C(=O)c1c(O)c3c(c(O)c1C2=O)C[C@@](O)(C(C)=O)C[C@@H]3O[C@H]1CC2[C@H](OCOCN2C(=O)OCc2ncc([N+](=O)[O-])n2C)[C@H](C)O1 (stereo partly drawn) [Compound 2b],did not undergo significant weight loss
3,"COc1cccc2c1C(=O)c1c(O)c3c(c(O)c1C2=O)C[C@@](O)(C(C)=O)C[C@@H]3O[C@H]1C[C@H](N)[C@H](O)[C@H](C)O1 [Daunorubicin, reference compound]",Significant weight loss
